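Dose response: 5 concentrations. Exposure: 48 h. Format: 96-well plates. Endpoint: linear interpolation; highest concentration if not reached. TGI: concentration producing complete growth inhibition.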
Columns and labels:
Experiment in all cases: NCI tumour cell line growth inhibition, 48 h
BT-549 breast = system: BT-549 breast
EKVX NSCLC = system: EKVX NSCLC
HS 578T breast = system: HS 578T breast
IGROV1 ovarian = system: IGROV1 ovarian
NCI-H23 lung = system: NCI-H23 lung
OVCAR-4 ovarian = system: OVCAR-4 ovarian
SF-268 CNS = system: SF-268 CNS
SN12C renal = system: SN12C renal
SNB-19 CNS = system: SNB-19 CNS
UACC-257 melanoma = system: UACC-257 melanoma

Structure (SMILES) | TGI (BT-549 breast) | TGI (EKVX NSCLC) | TGI (HS 578T breast) | TGI (IGROV1 ovarian) | TGI (NCI-H23 lung) | TGI (OVCAR-4 ovarian) | TGI (SF-268 CNS) | TGI (SN12C renal) | TGI (SNB-19 CNS) | TGI (UACC-257 melanoma)
Cc1nc2c(Br)cc(Br)cc2c(=O)n1-c1ccccc1NC1OC(CO)C(O)C(O)C1O (configuration not stated) | > 100 µM | > 100 µM | > 100 µM | > 100 µM | > 100 µM | > 100 µM | > 100 µM | > 100 µM | > 100 µM | > 100 µM
O=C1/C(=C/c2ccccc2)Oc2cc(O)ccc21 | > 100 µM | > 100 µM | > 100 µM | > 100 µM | > 100 µM | > 100 µM | > 100 µM | > 100 µM | > 100 µM | > 100 µM
Clc1ccc2c(c1)N(CCCN1CCCC13CCCCC3)c1ccccc1S2 | 32.5 µM | > 44 µM | 34.2 µM | 30.3 µM | 44.2 µM | 41.7 µM | > 58.7 µM | 26.8 µM | 34.3 µM | 24.4 µM
COC(=N)C1(C#N)NC(c2ccsc2)C(C#N)(C#N)NC1c1ccsc1 (configuration not stated) | > 100 µM | > 100 µM | > 100 µM | > 100 µM | > 100 µM | > 100 µM | > 100 µM | > 100 µM | > 100 µM | > 100 µM
FC1=C2C3CCC(C3)C2C1(F)F (configuration not stated) |  | > 100 µM |  | > 100 µM | > 100 µM | > 100 µM | > 100 µM | > 100 µM | > 100 µM | > 100 µM
CC(O)c1nc(C#N)c(N)o1 (configuration not stated) |  | > 100 µM | > 100 µM | > 100 µM | > 100 µM |  | > 100 µM | > 100 µM | > 100 µM | > 100 µM
CCN1CC2(C)CCC(OC)C34C5CC6CCC(O)(C5C(=O)O6)C(C(O)C23)C14 (configuration not stated) | > 100 µM | > 100 µM | > 100 µM | > 100 µM | > 100 µM | > 100 µM | > 100 µM |  | > 100 µM | > 100 µM
c1cnc2c(c1)-n1cccc1C1(CCCCC1)NN2 |  | > 100 µM |  |  |  | > 100 µM | > 100 µM | > 100 µM | > 100 µM | > 100 µM
CC1=C(C)C(=O)C(C2=CC(=O)c3ccccc3C2=O)=C(C2=CC(=O)c3ccccc3C2=O)C1=O | 48.1 µM | > 72 µM | > 100 µM | 29.8 µM | 45.5 µM | 42.8 µM | > 55.1 µM |  | > 36.5 µM | 28.6 µM
O=C(O)c1c(CC(Cc2ccc3c(c2)CCC3)C(=O)O)ccc2c1CCC2 (configuration not stated) | > 100 µM | > 100 µM | > 100 µM | > 100 µM | > 100 µM | > 100 µM |  | > 100 µM | > 100 µM | > 100 µM
CCC1(O)CC(CCN(Cc2ccccc2)C(=O)OCc2ccccc2)C(OCc2ccccc2)C1O (configuration not stated) | 33.3 µM | 30.9 µM |  | 37.4 µM | 30.4 µM | 22 µM |  | 82 µM | 31.6 µM | 34.7 µM
CC(C)CCCC(C)[C@H]1CCC(C2C[C@@H](O)[C@@H]3CC(O)[C@@H](O)C[C@]3(CO)C2=O)[C@]1(C)CCO (some centres not stated) |  | > 94.9 µM |  | 42.4 µM | > 90.5 µM | > 83.8 µM | 54.1 µM | > 74.1 µM | 96.3 µM | 46.5 µM
COC(=O)[C@]1(c2cc3ccccc3n2S(=O)(=O)c2ccccc2)CC2CN(C(=O)OCc3ccccc3)C1C1OC(C)(C)OC21 (some centres not stated) | > 100 µM | > 100 µM | > 100 µM | > 100 µM | > 100 µM | > 100 µM |  | > 100 µM |  | > 100 µM
CSC(SC)=C(C(=O)c1ccc(Cl)cc1)n1c(=O)sc2cc(Br)ccc21 |  | > 100 µM | > 100 µM | > 100 µM | > 100 µM | > 100 µM | > 100 µM | > 100 µM | > 100 µM | > 100 µM
CC(=O)C(=Cc1cn(C)c(=O)n(C)c1=O)C(C)=O |  | 323 µM |  | 470 µM | 194 µM | 273 µM | 526 µM | 216 µM | 414 µM | 177 µM
C[s+]1c2ccccc2c2ccccc21 |  | > 100 µM |  | > 100 µM |  | > 100 µM | > 100 µM | > 100 µM | > 100 µM | 
COC(=O)C1=C(CCCCO[Si](C)(C)C(C)(C)C)NC(=O)N2[C@H](CCOCc3ccccc3)CC[C@@H]12 | > 100 µM | > 100 µM |  |  | > 100 µM | > 100 µM | > 100 µM | > 100 µM | > 100 µM | > 100 µM
COc1cc2c(cc1O)C1Cc3ccc(OC)c(O)c3C[N+]1(C)CC2 (configuration not stated) | > 100 µM | > 100 µM | > 100 µM | > 100 µM | > 100 µM | > 100 µM | > 100 µM | > 100 µM | > 100 µM | 
CCOP(=O)(/C=C/n1cc(C)c(=O)[nH]c1=O)OCC | > 100 µM | > 100 µM |  | > 100 µM | > 100 µM | > 100 µM | > 100 µM | > 100 µM | > 100 µM | > 100 µM
O=C(c1ccccc1)C1N=NN(Cc2ccccc2[N+](=O)[O-])C1C(=O)c1ccccc1 (configuration not stated) |  | > 100 µM |  | > 100 µM | > 100 µM | > 100 µM | > 100 µM |  | > 100 µM | > 100 µM
O=c1[nH]c(=O)n(COC(CO)CO)cc1-c1ccccc1 |  | > 100 µM | > 100 µM | > 100 µM | > 100 µM | > 100 µM | > 100 µM | > 100 µM | > 100 µM | > 100 µM
Cc1cc(=O)[nH]c(NNC(C#N)c2cccc([N+](=O)[O-])c2)n1 (configuration not stated) |  |  |  | > 100 µM | > 100 µM | > 100 µM | > 100 µM | > 100 µM |  | > 100 µM
CN(CCCCCl)P(=O)(OCc1ccc([N+](=O)[O-])o1)OCC1OC(n2ccc(N)nc2=O)C(O)C1O (configuration not stated) |  |  | 6.46 µM | 16.3 µM | 33.1 µM | 29.1 µM | > 100 µM | 33.7 µM | 43.7 µM | 30.2 µM
